This note sets out measurements from the Kinase Knowledgebase extract (Sharma et al. 2016).

The target of one experiment is MAPK14 (human) (UniProt Q16539). Put plainly: p38 Kinase Inhibition.
Another experiment deals with MAPK14 (UniProt Q16539). Put plainly: p38 --- TNF-alpha Inhibition. The note with it: for IC50: thp1.
MAPK14, sequence (Q16539 whole entry, looked up): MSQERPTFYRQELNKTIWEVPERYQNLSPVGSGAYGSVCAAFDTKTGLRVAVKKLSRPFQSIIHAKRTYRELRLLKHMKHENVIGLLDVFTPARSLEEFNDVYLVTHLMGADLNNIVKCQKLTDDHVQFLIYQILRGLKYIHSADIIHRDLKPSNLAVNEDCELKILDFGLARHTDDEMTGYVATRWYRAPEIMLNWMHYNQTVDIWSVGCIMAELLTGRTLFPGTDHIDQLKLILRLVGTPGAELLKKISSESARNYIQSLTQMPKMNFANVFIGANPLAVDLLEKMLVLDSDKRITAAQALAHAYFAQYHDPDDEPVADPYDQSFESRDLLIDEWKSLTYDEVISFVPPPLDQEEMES

MAPK14 (human), sequence (Q16539 whole entry, looked up): as above

For `Clc1cccc(-c2nc3cccccc-3c2-c2ccncc2)c1`, the IC50 against MAPK14 (human) turned out to be 4960 nM; against MAPK14 it was 1420 nM.
Take `Fc1cc(-c2c3cccccc-3nc2-c2cccc(Cl)c2)ccn1`: the IC50 against MAPK14 (human) is 935 nM; at MAPK14, 950 nM.
The matching figures for `Fc1ccc(-c2nc3cccccc-3c2-c2ccnc(F)c2)cc1`: 3280 nM and 1560 nM.
`CSc1nccc(-c2c3cccccc-3nc2-c2ccc(F)cc2)n1`: the IC50 worked out at 2590 nM against MAPK14 (human) and 4510 nM on MAPK14.
On the same counts, the results for `CNc1nccc(-c2c3cccccc-3nc2-c2cccc(C(F)(F)F)c2)n1` are 2850 nM and 675 nM.
Consider `COc1ccc(-c2nc3cccccc-3c2-c2ccncc2)cc1`, for which the IC50 against MAPK14 (human) was determined as 24100 nM. For the same compound, on MAPK14 (thp1, concentration not given here), the inhibition came out at 37%.
Regarding `Clc1ccc(-c2nc3cccccc-3c2-c2ccncc2)cc1`, the IC50 against MAPK14 (human) was 2790 nM; against MAPK14, 1400 nM.
Take `FC(F)(F)c1cccc(-c2nc3cccccc-3c2-c2ccncc2)c1`: the IC50 at MAPK14 (human) is 1470 nM; on MAPK14 it was 160 nM.
On the same counts, the results for `Fc1cc(-c2c3cccccc-3nc2-c2cccc(C(F)(F)F)c2)ccn1` are 12100 nM and 1610 nM.
As for `Fc1ccc(-c2nc3cccccc-3c2-c2ccncc2)cc1`, the IC50 was 1340 nM against MAPK14 (human) and 230 nM against MAPK14.
Regarding `CNc1nccc(-c2c3cccccc-3nc2-c2ccc(F)cc2)n1`, the IC50 was determined as 17100 nM against MAPK14 (human) and 1710 nM against MAPK14.
On to `Cc1ccc(-c2nc3cccccc-3c2-c2ccncc2)cc1`, for which the results for the IC50 on MAPK14 (human) and against MAPK14 were 4760 nM and 263 nM, respectively.

Usually IC50 stands for the point on the concentration scale where inhibition reaches its midpoint. Lower therefore signals higher potency. As usually defined, the inhibition is the share of the control response that was lost under treatment.
